Values quoted from earlier work in article PMC7287799 (Molecules, 2020).

Tested on: E. coli IMPDH

SMILES: NC(=O)c1ncn([C@@H]2O[C@H](CO)[C@@H](O)[C@H]2O)c1O [Mizoribine]
- Ki: 500 nM
